Columns and labels:
[1] = tested on: oxygen-induced retinopathy in rat; experiment: Inhibitory effect on oxygen-induced retinopathy in rat (in vivo); design: species or system SD rat; details: for Score of pathological condition of retina: rat newborns, oxygen load present, seven times, mean ± SD
Description: SD rat newborns (Charles River Laboratories Japan, Inc., pregnant rats were received) were used in the experiment. From the ages of 1 day to 12 days, the newborns were raised under approximately 80% oxygen with the mother rats. The newborns were raised under the atmosphere from the age of 13 days. A suspension of the terpenoid derivative B was prepared using a 0.5 w/v % methylcellulose solution 400 cP (Wako Pure Chemical Industries, Ltd., catalog No. 133-14255) as a solvent. The suspension was orally administered once a day from the ages of 11 days to 17 days, a total of seven times, at a dose of 0.03, 0.1, or 0.3 mpk with administration volume of 10 mL/kg. On the next day of the final […], the newborn rats were euthanized, and the retina was sampled. The pathological condition of the retina was scored according to the literature (Invest Ophthalmol Vis Sci 2000; 41: 887-). Each group consisted of 14 to 30 eyes and was indicated as a mean and standard deviation.

Hmox1 gene = experiment: Effect of inducing Nrf2 target gene (in vitro): Hmox1 gene expression in ARPE-19 cells, real-time quantitative PCR; assay type: cell-based, human; details: for Hmox1 gene expression level (relative value): approx. 6 hours, 0 nM defined as 1.0, mean ± SD, 3 wells; for concentration at which the expression level of the Hmox1 gene was increased 2-fold / concentration at which the expression level of the Hmox1 gene was increased 5-fold: analysed with Prism
Description: The Hmox1 gene was used as the Nrf2 target gene.
The expression level of the Hmox1 gene induced by the addition of a test compound to ARPE-19 cells (human retinal pigment epithelium cell line, ATCC, catalog No. CRL-2302) was measured to examine the effect of inducing the Hmox1 gene by the test compound. The test compound was terpenoid derivative B of the present invention obtained in Example 1 and CDDO-Me as Comparative Example.
The ARPE-19 cells were cultured (5% CO2, 37° C.) using a DMEM/F12 (Life Technologies Japan Ltd., catalog No. 11330-032) mixed medium containing 10% inactivated FBS. The medium contained 100 units/mL (final concentration) penicillin and 100 μg/mL (final concentration) streptomycin.
The ARPE-19 cells were seeded at 60000 cells/well in a 24-well plate. The amount of the medium was 500 μL. Approximately 24 hours later, the medium was replaced with a medium containing terpenoid derivative B of the present invention obtained in Example 1 or CDDO-Me, and the culture was continued. Approximately 6 hours later, mRNA was collected from the ARPE-19 cells using an extraction kit (manufactured by Qiagen N.V., RNeasy Mini Kit, catalog No. 74106). From the obtained mRNA, cDNA was prepared using a cDNA synthesis kit (manufactured by GE Healthcare Life Sciences, First-Strand cDNA Synthesis Kit). The obtained cDNA was amplified using a reagent (manufactured by Applied Biosystems, Inc., TaqMan(R) Gene Expression Master Mix (catalog No. 4369016)) and a probe, and subjected to real-time quantitative PCR (Real-time PCR HT7900 manufactured by Applied Biosystems, Inc. was used).
When the concentration of the test compound was 0 nM, the expression level of the Hmox1 gene was defined as 1.0±0.0. The expression level of the Hmox1 gene at each concentration of the test compound was indicated as a relative value. Each group consisted of 3 wells and was indicated by a mean and standard deviation.
The activity ratios of terpenoid derivative B of the present invention to CDDO-Me were 2747 times and 92 times.

NQO1 = NQO1 assay in Hepa1c1c7 cells; assay type: cell-based, mouse; details: approx. 48 hours, mean of 3 wells
Description: Hepa1c1c7 cells (mouse hepatic cell line, ATCC, catalog No. CRL-2026) were cultured (5% CO2, 37° C.). A DMEM (Life Technologies Japan Ltd., catalog No. 11965-092) medium also containing 10% inactivated FBS was used. The medium contained 100 units/mL (final concentration) penicillin and 100 μg/[…] (final concentration) streptomycin. The NQO1 assay was conducted according to previous reports (Anal Biochem 1998; 169: 328-; and Methods Enzymol 2004; 382: 243-).
The Hepa1c1c7 cells were seeded at 10000 cells/well in a 96-well plate. The amount of the medium was 100 μL. Approximately 24 hours later, the medium was replaced with a medium containing CDDO-Me or each of terpenoid derivatives A to G, followed by further culture for approximately 48 hours. A lysis solution (a solution containing 2 mM EDTA and 0.8% digitonin), a reaction solution (a solution containing 0.025 M of tris-HCl, 0.067% of albumin, 0.01% of Tween-20, 2 U/mL of glucose-6-phosphate dehydrogenase, 5 μM of flavin adenine dinucleotide, 1 […], 30 μM of nicotinamide adenine dinucleotide phosphate, 0.03% of 3-(4,5-dimethyl-2-thiazolyl)-2,5-diphenyltetrazolium bromide (MTT), and 50 μM of menadione), and a stop solution (a solution containing 0.3 mM dicumarol and 5 mM potassium dihydrogen phosphate, pH 7.4) were prepared. After removal of the medium, 50 μL of the lysis solution was added thereto, and the mixture was left standing at 37° C. for 10 minutes. The reaction mixture was further shaken at room temperature for 10 minutes.
Two hundred μL of the solution was added thereto, and the mixture was left standing at room temperature for 5 minutes. Fifty μL of the stop solution was added thereto, and the absorbance at 490 nm was measured.
The test results were analyzed using Prism (GraphPad Software, Inc., Ver. 5) to calculate the CD value of the concentration at which the activity of NQO1 was increased 2-fold. Each group consisted of 3 wells and indicated as a mean of CD values.

SMILES	Score of pathological condition of retina ([1]; 0.03 mg/kg oral once a day)	Score of pathological condition of retina ([1]; 0.1 mg/kg oral once a day)	Score of pathological condition of retina ([1]; 0.3 mg/kg oral once a day)	effect on score of the pathological condition of the retina (in words) ([1]; rat oxygen-induced retinopathy, oral 0.03 to 0.3 mg/kg)	activity ratio to CDDO-Me (2-fold Hmox1 increase concentration) (Hmox1 gene) [times]	activity ratio to CDDO-Me (5-fold Hmox1 increase concentration) (Hmox1 gene) [times]	Hmox1 gene expression level (relative value) (Hmox1 gene; 0.00001 nM test compound)	Hmox1 gene expression level (relative value) (Hmox1 gene; 0.001 nM test compound)	Hmox1 gene expression level (relative value) (Hmox1 gene; 0.03 nM test compound)	Hmox1 gene expression level (relative value) (Hmox1 gene; 0.3 nM test compound)	Hmox1 gene expression level (relative value) (Hmox1 gene; 3 nM test compound)	Hmox1 gene expression level (relative value) (Hmox1 gene; 30 nM test compound)	concentration at which the expression level of the Hmox1 gene was increased 2-fold (Hmox1 gene) [nM]	concentration at which the expression level of the Hmox1 gene was increased 5-fold (Hmox1 gene) [nM]	CD value (concentration at which the activity of NQO1 was increased 2-fold) (NQO1) [nM]
COC(=O)[C@@]12CC[C@]3(C)[C@H](C(=O)C=C4[C@@]5(C)[C@H]6O[C@@]6(C#N)C(=O)C(C)(C)[C@@H]5CC[C@]43C)[C@@H]1CC(C)(C)[C@@H](O)C2 [terpenoid derivative B]	3.93 ± 0.79	3.54 ± 0.48	2.57 ± 0.35	suppressed the score of the pathological condition of the retina in a dose-dependent manner	2747	92	1.3 ± 0.0	0.9 ± 0.1	5.4 ± 0.1	6.1 ± 0.5	10.4 ± 1.5	20.8 ± 1.9	0.00091	0.12	0.3
COC(=O)[C@]12CCC(C)(C)C[C@H]1[C@H]1C(=O)C=C3[C@@]4(C)C=C(C#N)C(=O)C(C)(C)[C@@H]4CC[C@@]3(C)[C@]1(C)CC2 [CDDO-Me, methyl 2-cyano-3,12-dioxooleana-1,9-dien-28-oate, reference compound]	–	–	–	–	–	–	1.1 ± 0.0	1.0 ± 0.1	1.4 ± 0.0	1.4 ± 0.1	2.1 ± 0.3	12.2 ± 2.6	2.5	11	1.0

Reference: US10253060B2, “Terpenoid derivatives” (Daiichi Sankyo Company, Limited, priority 2013, dated 2019)
